{"source": "patent US4473497A", "about": "“Pharmacologically active peptides” (Eli Lilly and Company, priority 1983, dated 1984)", "key": {"Cox Standard albino mice": {"test_system": "Cox Standard albino mice", "assay": "mouse writhing test (acetic acid induced)", "type": "in vivo", "conditions": "0.6% acetic acid i.p.", "method": "In the mouse writhing test, a writhing response is defined as a contraction of the abdominal musculature followed by extension of the hind limbs. Acetic acid administered intraperitoneally (10 ml./kg.) at a concentration of 0.6% was used to induce a writhing response. Five Cox Standard albino mice weighing 20-22 g. after being fasted overnight were observed simultaneously for the writhing response. Each mouse was used only once. The observation period was ten minutes and started five minutes following administration of the acetic acid. Inhibition of mouse writhing was calculated from the total number of writhes in the control and test compound-treated groups according to the following formula: [formula]\nThe dose required to reduce the frequency of writhing by 50% is defined as the ED50 and is calculated by \"The Use of Regression Line in Reverse\", [Brownlee, K. A., Statistical Theory and Methodology in Science and Engineering, 2nd Ed., New York, John Wiley and Sons (1965)]."}, "mouse (Harlan ND4)": {"test_system": "mouse (Harlan ND4)", "assay": "mouse hot plate test (Mouse Jump test)", "type": "in vivo", "conditions": "subcutaneous injection, 15 minutes after administration, hot plate 55° C., latency to jump", "method": "In the mouse hot plate test, an upright acrylic cylinder comprising, as its base, a hot plate surface which is maintained at 55° C. is used. A mouse (Harlan ND4) is given, by subcutaneous injection, a predetermined amount of test compound dissolved or suspended in a suitable carrier, and, 15 minutes after administration of the test compound, the mouse is placed on the hot plate surface. The latency in seconds until the mouse jumps from the hot plate surface is measured. […] This must occur in a dose range which produces no motor incoordination or incapacitation. The following Table records ED50 results obtained from this test. By the term \"ED50 \" is meant that dose which produces analgesia in 50% of the mice tested. Analgesia is defined as a response latency in the presence of test compound that is equal to or greater than the control response latency plus two standard deviations. The percent analgesia data are converted to probits, and the ED50 is calculated by regression analysis of the dose-response data. Each dose response curve must have at least four points, and each point is determined using data from a minimum of ten treated mice and ten control mice."}}}
{"substance": "L-(N-Methyl)tyrosyl-D-alanylglycine, [N-ethyl-N-(1-benzyl-2-dimethyloxidoamino)ethyl] amide, Diacetate Salt", "values": [{"measurement": "ED50 in the Mouse Writhing test (dose reducing frequency of writhing by 50%)", "setting": "Cox Standard albino mice; oral administration", "value": 5.6, "unit": "mg/kg"}, {"measurement": "ED50 in the Mouse Writhing test (dose reducing frequency of writhing by 50%)", "setting": "Cox Standard albino mice; subcutaneous administration", "value": 0.1, "unit": "mg/kg"}, {"measurement": "ED50 in the Mouse Jump test (dose which produces analgesia in 50% of the mice)", "setting": "mouse (Harlan ND4)", "value": 0.0025, "unit": "mg/kg"}]}
